Test results taken from patent US12115149B2, “Formulations, methods, kits, and dosage forms” (MedRegen, LLC, priority 2020, dated 2024).
Like-named read-outs stand apart in the source and are kept apart here.

Columns and labels:
[1] = PK/PD study of Formulation A s.c. in SD rats; settings: for absorption lag time after s.c. administration: Formulation A 0.744 ml/kg s.c.
Experimental: (§1) All samples were frozen and stored at −70° C. on receipt. The samples were analyzed by liquid chromatography with tandem mass spectral detection.

[2] = rat, in vivo, sc; for time by which cleared: SD
Experimental: as §1

[3] = PK/PD study of Formulation A s.c. in mini pigs; settings: Formulation A 0.132 ml/kg s.c.
Experimental: as §1

[4] = pig, in vivo, sc
Experimental: as §1

[5] = cited from earlier work
[6] = Degradation of FK506 in a combination of the two APIs; type: physicochemical; settings: combination of the two APIs in solution, earlier attempts; stated as 'may be'

Row | absorption lag time after s.c. administration [1] | time by which cleared [2] [h] | plasma level at 3 hours [2] | blood level at 3 hours [3] | clearance from blood [3] | blood level at 3 hours [4] | time of peak plasma concentration ([1]; Formulation A 0.744 ml/kg s.c. (AMD3100 17.856 mg/kg, FK506 0.372 mg/kg), n=12) [h] | FK506 degraded [6] | Molecule | solubility in water [5]
1 | no observable lag time | ≤ 12 | remained at high levels | remained at high levels | cleared rapidly after 12 hours |  |  |  | c1cc(CN2CCCNCCNCCCNCC2)ccc1CN1CCCNCCNCCCNCC1 [AMD3100] | 
2 | no observable lag time | ≤ 12 | remained at high levels |  | cleared rapidly after 12 hours | remained at high levels | 1 | About 50% | C=CC[C@@H]1/C=C(\C)C[C@H](C)C[C@H](OC)[C@H]2O[C@@](O)(C(=O)C(=O)N3CCCC[C@H]3C(=O)O[C@H](/C(C)=C/[C@@H]3CC[C@@H](O)[C@H](OC)C3)[C@H](C)[C@@H](O)CC1=O)[C@H](C)C[C@@H]2OC [FK506, Tacrolimus] | poor solubility in water
3 |  |  |  |  |  |  |  |  | AMD3100 octahydrochloride hydrate | 22 mg/mL
